# According to patent US20040018500A1, “Methods and systems for analyzing complex biological systems” (priority 2001, published 2004):
# Test system: Saccharomyces cerevisiae wild type strain BY4743
# Assay: AF1 metabolite analysis (GC-MS, LC-MS) of yeast treated with antifungal drugs
# Assay type: cell-based
# Settings: for # Compounds perturbed: yeast, 2×MIC, two hours
compound,measurement,setting,value
C[C@@H]1[C@H](O)[C@@H](C)/C=C/C=C/C=C/C=C/C=C/C=C/C=C/[C@H](O[C@@H]2O[C@H](C)[C@@H](O)[C@H](N)[C@@H]2O)C[C@@H]2O[C@](O)(C[C@@H](O)C[C@@H](O)[C@H](O)CC[C@@H](O)C[C@@H](O)CC(=O)O[C@H]1C)C[C@H](O)[C@H]2C(=O)O [Amphoteracin B],Fold Change of TMS mevalonic acid lactone,GC,−0.9767
same,Fold Change of alanine,GC,−0.7773
same,Fold Change of asparagine,GC,−1
same,Fold Change of aspartic acid,GC,−0.9743
same,Fold Change of campesterol,GC,0
same,Fold Change of desmosterol,GC,0
same,Fold Change of disaccaride1,GC,−1
same,Fold Change of disaccaride2,GC,−0.9977
same,Fold Change of disaccaride3,GC,−0.9977
same,Fold Change of ergosterol,GC,2.303
same,Fold Change of fucosterol,GC,−0.6553
same,Fold Change of glutamine,GC,−0.9116
same,Fold Change of glycanopyrose,GC,−0.958
same,Fold Change of glycerol,GC,−0.815
same,Fold Change of glycine,GC,0.8807
same,Fold Change of hexadecanoic acid,GC,−0.2427
same,Fold Change of iso citric acid,GC,−0.6183
same,Fold Change of isoleucine,GC,−0.9533
same,Fold Change of lanosterol,GC,−1
same,Fold Change of leucine,GC,−0.9443
same,Fold Change of lysine,GC,−0.3925
same,Fold Change of malic acid,GC,−0.963
same,Fold Change of mevalonic acid lactone,GC,−0.1276
same,Fold Change of octadecanoic acid,GC,0.21
same,Fold Change of oleic acid,GC,−0.4593
same,Fold Change of ornithine2,GC,−1
same,Fold Change of ornithine3,GC,−0.9853
same,Fold Change of palmiteliadic acid,GC,0.515
same,Fold Change of phenylalanine,GC,−0.9797
same,Fold Change of phosphate,GC,−0.007333
same,Fold Change of pyrimidine,GC,−0.185
same,Fold Change of squalene,GC,−0.5745
same,Fold Change of tetradecanoic acid,GC,0.07967
same,Fold Change of threonine2,GC,−0.8553
same,Fold Change of threonine3,GC,−0.8933
same,Fold Change of tms glutamine3,GC,−0.8935
same,Fold Change of tms lysine4,GC,−0.9783
same,Fold Change of tms tyrosine2,GC,−0.3593
same,Fold Change of tms tyrosine3,GC,−0.9473
same,Fold Change of valine,GC,−0.8673
same,Fold Change of abscisic acid,LC,0
same,Fold Change of adenosine,LC,0
same,Fold Change of glutamine/lysine,LC,0.3981
same,Fold Change of guanosine,LC,0.7598
same,Fold Change of riboflavin,LC,0
same,Fold Change of serine,LC,0.2011
same,Fold Change of tyrosine,LC,0.2347
same,# Compounds perturbed,P < 0.05,16
same,# Compounds perturbed,P < 0.1,21
same,Fold Change of 2-ketobutyric acid,nLC,−0.9992
same,Fold Change of 2-ketoglutaric,nLC,8.791
same,Fold Change of 3-indolylacetonitri,nLC,−0.9998
same,Fold Change of 4-methylcatechol,nLC,0
same,Fold Change of 4aminobutyrate/dimg,nLC,−0.1983
same,Fold Change of 5hydroxyLtryptophan,nLC,0
same,Fold Change of 6-benzylaminopurine,nLC,0
same,Fold Change of DLaminoadipic acid,nLC,1.411
same,Fold Change of NacetylDglucosamine,nLC,0
same,Fold Change of NacetylLglutamate,nLC,−0.1078
same,Fold Change of NacetylLornithine,nLC,0
same,Fold Change of abscisic acid,nLC,0
same,Fold Change of aconitic acid,nLC,0.5426
same,Fold Change of adenine,nLC,0
same,Fold Change of adenosine,nLC,0
same,Fold Change of alanine,nLC,0.1599
same,Fold Change of allantoic acid,nLC,−0.1456
same,Fold Change of allantoin,nLC,3.97
same,Fold Change of anthranilic acid,nLC,0
same,Fold Change of arginine,nLC,−0.4885
same,Fold Change of argininosuccinate,nLC,0
same,Fold Change of asparagine,nLC,0.1511
same,Fold Change of aspartic,nLC,0.2407
same,Fold Change of benzoic acid,nLC,0
same,Fold Change of biotin,nLC,1.077
same,Fold Change of caffeic acid,nLC,−0.5882
same,Fold Change of catechol,nLC,0
same,Fold Change of cinnamic acid,nLC,0
same,Fold Change of citricanoic/itaconi,nLC,0
same,Fold Change of citrulline,nLC,1659
same,Fold Change of coumaric acid,nLC,0
same,Fold Change of cytidine,nLC,−0.9986
same,Fold Change of cytosine,nLC,0
same,Fold Change of decanoic acid,nLC,−0.08716
same,Fold Change of diaminopimelic acid,nLC,0
same,Fold Change of dihydrofolic acid,nLC,0
same,Fold Change of estrone,nLC,0
same,Fold Change of farnesol,nLC,0
same,Fold Change of folic acid,nLC,0
same,Fold Change of fumaric/3m2oxobutan,nLC,0.4423
same,Fold Change of gallic acid,nLC,0.1622
same,Fold Change of gibberellic,nLC,0
same,Fold Change of giutamine/lysine,nLC,0.07919
same,Fold Change of glucosamine6PO4,nLC,−0.9951
same,Fold Change of glutamic/acetylseri,nLC,0.1414
same,Fold Change of guanine,nLC,0
same,Fold Change of guanosine,nLC,1.131
same,Fold Change of histidine,nLC,0
same,Fold Change of homogentisic/uric,nLC,0
same,Fold Change of hydrocortisone,nLC,0
same,Fold Change of hypoxanthine,nLC,0.1655
same,Fold Change of indole3pyruvic acid,nLC,0
same,Fold Change of inostol/glucos/sorb,nLC,−0.5905
same,Fold Change of isocitric/citric/qu,nLC,2.549
same,Fold Change of jasmonic acid,nLC,0
same,Fold Change of kinetin,nLC,0
same,Fold Change of lactic acid,nLC,−0.02583
same,Fold Change of lauric acid,nLC,0.1225
same,Fold Change of leucine/isoleucine/,nLC,0.1319
same,Fold Change of luteolin,nLC,0
same,Fold Change of malic acid,nLC,0.6212
same,Fold Change of malonic acid,nLC,0
same,Fold Change of menthol*,nLC,−0.07013
same,Fold Change of methionine,nLC,0
same,Fold Change of nopaline,nLC,0.3342
same,Fold Change of oleic acid,nLC,0.689
same,Fold Change of ornithine,nLC,2.534
same,Fold Change of orotic acid,nLC,8380
same,Fold Change of palmitic acid,nLC,0.3979
same,Fold Change of phenylalanine,nLC,−0.1906
same,Fold Change of phenylpyruvic acid,nLC,0
same,Fold Change of phosphoenolpyruvate,nLC,0
same,Fold Change of pinitol,nLC,0
same,Fold Change of pipecolic acid,nLC,0.08112
same,Fold Change of porphobilinogen,nLC,0
same,Fold Change of proline,nLC,0.4603
same,Fold Change of pyridoxine,nLC,−0.1294
same,Fold Change of retinoic acid,nLC,0
same,Fold Change of salicylic/HObenzoic,nLC,0
same,Fold Change of selenoOLmethionine,nLC,0.8515
same,Fold Change of serine,nLC,0.1091
same,Fold Change of shikimic acid,nLC,0
same,Fold Change of sinapinic acid,nLC,0
same,Fold Change of sorbitol/mannitol,nLC,0.2162
same,Fold Change of succinic,nLC,0.8663
same,Fold Change of sucrose,nLC,0.4493
same,Fold Change of sugar-phosphate,nLC,−0.1067
same,Fold Change of tetradecanoic acid,nLC,−0.07723
same,Fold Change of threonine/homoserin,nLC,0.1267
same,Fold Change of thymine,nLC,0
same,Fold Change of tryptophan,nLC,1.142
same,Fold Change of tyrosine,nLC,0.0982
same,Fold Change of uracil,nLC,1.511
same,Fold Change of uridine,nLC,0.1126
same,Fold Change of urocanic acid,nLC,0
same,Fold Change of valine,nLC,0.1624
same,Fold Change of xanthosineDiH2O,nLC,0
same,Fold Change of zeatin,nLC,0
same,Fold Change of 4-aminobenzoic acid,pLC,0
same,Fold Change of 4-methylcatechol,pLC,0
same,Fold Change of 4ambutyrate/dimglyc,pLC,0.01279
same,Fold Change of 5hydroxyLtryptophan,pLC,0
same,Fold Change of 6benzylaminopurine,pLC,0
same,Fold Change of DL-aminoadipic acid,pLC,0.4703
same,Fold Change of NacetylDglucosamine,pLC,0
same,Fold Change of NacetylLglutamate,pLC,0
same,Fold Change of NacetylLornithine,pLC,1.319
same,Fold Change of adenine,pLC,0.1153
same,Fold Change of alanine/sarcosine,pLC,0.2602
same,Fold Change of allantoic acid,pLC,0
same,Fold Change of anthranilic acid,pLC,0
same,Fold Change of arginine,pLC,0.4662
same,Fold Change of argininosuccinate,pLC,0
same,Fold Change of asparagine,pLC,0.6344
same,Fold Change of aspartic acid,pLC,0.3594
same,Fold Change of biotin,pLC,0
same,Fold Change of caffeine,pLC,0
same,Fold Change of citric acid TME,pLC,0
same,Fold Change of citrulline,pLC,1.798
same,Fold Change of cytidine,pLC,0
same,Fold Change of cytosine,pLC,0
same,Fold Change of diaminopimelic acid,pLC,0
same,Fold Change of dihydrofolic acid,pLC,0
same,Fold Change of dipicolinic acid,pLC,0
same,Fold Change of folic acid,pLC,0
same,Fold Change of glucosamine,pLC,0
same,Fold Change of glucosamine6PO4,pLC,0
same,Fold Change of glutamate,pLC,0.4341
same,Fold Change of glutathione,pLC,−0.03348
same,Fold Change of histidine,pLC,0
same,Fold Change of hydrocortisone,pLC,0
same,Fold Change of hypoxanthine,pLC,0.2057
same,Fold Change of itaconic acid dimes,pLC,0
same,Fold Change of kinetin,pLC,0
same,Fold Change of leucine/isoleucine/,pLC,0.2746
same,Fold Change of luteolin,pLC,0
same,Fold Change of mannitol,pLC,0.4543
same,Fold Change of methionine,pLC,0.3299
same,Fold Change of mevalonic lactone,pLC,−0.4606
same,Fold Change of niacinamide,pLC,0
same,Fold Change of nicotinic acid,pLC,−0.9989
same,Fold Change of nopaline,pLC,0
same,Fold Change of ornithine,pLC,0.5049
same,Fold Change of phenylalanine,pLC,0.4036
same,Fold Change of phosphoenolpyruvate,pLC,0
same,Fold Change of pipecolic acid,pLC,0.5237
same,Fold Change of progesterone,pLC,0
same,Fold Change of proline,pLC,0.6707
same,Fold Change of pyridoxine,pLC,−0.1684
same,Fold Change of selenoDLmethionine,pLC,1.178
same,Fold Change of sugar-phosphate,pLC,0
same,Fold Change of thiamine,pLC,0
same,Fold Change of threonine/homoserin,pLC,0.3145
same,Fold Change of thymine,pLC,0
same,Fold Change of tryptophan,pLC,0
same,Fold Change of uric acid,pLC,308
same,Fold Change of urocanic acid,pLC,0
same,Fold Change of xanthosine(diH2O),pLC,0
same,Fold Change of zeatin,pLC,0
